Drawing on ChEMBL document CHEMBL1149464, “Structure-guided synthesis of tamoxifen analogs with improved selectivity for the orphan ERRgamma” (Bioorg Med Chem Lett, 2006), this text covers IC50 and Ratio IC50 for 12 molecules.

In general, IC50 refers to the concentration needed to halve the response being measured. Lower therefore signals higher potency.

Assay [1] has as its target T1, Estrogen-related receptor gamma (Homo sapiens, UniProt P62508).
T1 sequence (P62508 whole entry): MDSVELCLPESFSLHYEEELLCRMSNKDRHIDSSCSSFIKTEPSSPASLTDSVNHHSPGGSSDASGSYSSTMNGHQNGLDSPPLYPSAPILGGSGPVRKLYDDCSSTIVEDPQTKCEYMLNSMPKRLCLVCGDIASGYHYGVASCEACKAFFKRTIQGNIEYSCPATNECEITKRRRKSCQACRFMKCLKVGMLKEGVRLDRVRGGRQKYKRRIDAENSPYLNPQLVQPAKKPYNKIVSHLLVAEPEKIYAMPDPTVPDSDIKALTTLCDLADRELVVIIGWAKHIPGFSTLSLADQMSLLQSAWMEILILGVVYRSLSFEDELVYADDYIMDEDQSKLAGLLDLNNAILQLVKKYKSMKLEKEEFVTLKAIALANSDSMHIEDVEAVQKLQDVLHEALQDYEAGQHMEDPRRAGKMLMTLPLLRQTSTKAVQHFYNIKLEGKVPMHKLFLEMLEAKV

The target of assay [2] is T1, Estrogen-related receptor gamma. The experiment in a line: Displacement of [3H]4-OHT from ERRgamma at 3 uM. (In general: Loss of bound radioactivity is the signal in a displacement assay; it reports binding, not function.)
For a further assay, the species on record is Homo sapiens. The assay can be described thus: Selectivity for ERRgamma over ERalpha relative to 4-hydroxytamoxifen.
The next assay has as its target T2, Estrogen receptor (Homo sapiens, UniProt P03372).
T2 sequence (P03372 whole entry): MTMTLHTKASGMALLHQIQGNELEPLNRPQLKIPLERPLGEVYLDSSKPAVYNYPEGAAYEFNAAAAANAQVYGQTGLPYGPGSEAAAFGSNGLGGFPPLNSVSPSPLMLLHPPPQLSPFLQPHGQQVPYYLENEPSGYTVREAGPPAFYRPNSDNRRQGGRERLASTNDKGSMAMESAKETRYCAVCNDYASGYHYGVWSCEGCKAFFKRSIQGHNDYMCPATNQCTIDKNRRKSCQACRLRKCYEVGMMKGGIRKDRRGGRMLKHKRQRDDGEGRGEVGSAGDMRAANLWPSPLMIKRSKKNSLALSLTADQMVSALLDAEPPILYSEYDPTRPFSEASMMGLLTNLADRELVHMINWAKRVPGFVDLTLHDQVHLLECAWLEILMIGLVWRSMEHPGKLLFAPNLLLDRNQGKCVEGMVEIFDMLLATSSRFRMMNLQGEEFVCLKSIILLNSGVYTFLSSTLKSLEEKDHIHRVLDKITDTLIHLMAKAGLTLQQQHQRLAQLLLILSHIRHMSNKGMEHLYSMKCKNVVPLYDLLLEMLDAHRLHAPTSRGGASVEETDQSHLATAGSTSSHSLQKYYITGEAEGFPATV

For `CN(C)CCOc1ccc(/C(=C(/CCCCl)c2ccccc2)c2ccc(O)cc2)cc1`, the half-maximal inhibitory concentration (IC50) in assay [1] amounted to 130 nM.
As for `CN(C)CCC/C(=C(\c1ccc(O)cc1)c1ccc(OCCN(C)C)cc1)c1ccccc1`, the half-inhibitory concentration (IC50) result in assay [2] is “Not Active”.
As for `CN(C)CCOc1ccc(/C(=C(/CCC#N)c2ccccc2)c2ccc(O)cc2)cc1`, the IC50 in assay [1] is 1300 nM.
Same read-out and setting: then `CSCCC/C(=C(\c1ccc(O)cc1)c1ccc(OCCN(C)C)cc1)c1ccccc1`, with 1000 nM.
For the molecule `CNCCC/C(=C(\c1ccc(O)cc1)c1ccc(OCCN(C)C)cc1)c1ccccc1`, the IC50 entry in assay [2] is “Not Active”.
On to `CN(C)CCOc1ccc(/C(=C(/CCCC#N)c2ccccc2)c2ccc(O)cc2)cc1`, for which, in assay [1], the midpoint of inhibition, the IC50, lay at 200 nM.
Turning to `CN(C)CCOc1ccc(/C(=C(/CCCC(=O)O)c2ccccc2)c2ccc(O)cc2)cc1`, in assay [2], the IC50 entry is “Not Active”.
`CN(C)CCOc1ccc(/C(=C(/CCN=[N+]=[N-])c2ccccc2)c2ccc(O)cc2)cc1`: the 50% inhibitory concentration (IC50) in assay [1] is 5 nM; on Estrogen receptor, 1 nM. For the same molecule, the Ratio IC50 in the assay listed under Homo sapiens came out at 1.6.
Turning to `CC(=O)NCCC/C(=C(\c1ccc(O)cc1)c1ccc(OCCN(C)C)cc1)c1ccccc1`, the IC50 entry in assay [2] is reported as “Not Active”.
For the molecule `CN(C)CCOc1ccc(/C(=C(/CCCl)c2ccccc2)c2ccc(O)cc2)cc1` [4-HYDROXYTORMIFENE], half-maximal inhibition in assay [1] (IC50) required 13 nM.
Same read-out and setting: then `CN(C)CCOc1ccc(/C(=C(/CCCN=[N+]=[N-])c2ccccc2)c2ccc(O)cc2)cc1`, with 160 nM; and `CN(C)CCOc1ccc(/C(=C(/CCCCO)c2ccccc2)c2ccc(O)cc2)cc1`, with 790 nM.
